Laboratory results reported in patent US20220056043A1, “NITROGEN-CONTAINING FUSED CYCLIC COMPOUND, PREPARATION METHOD THEREFOR AND USE THEREOF” (SICHUAN KELUN-BIOTECH BIOPHARMACEUTICAL CO., LTD., priority 2019, published 2022).

Experiments:
[1] = system: THP1-defNLRP3 cells; assay: Agonistic effect on the expression of IL-1β in NLRP3 deficient THP1 cells (THP1-defNLRP3) after PMA-induced differentiation (HTRF); format: cell-based, human; details: Homo sapiens, THP-1; IL-1β level, PMA-differentiated NLRP3 deficient THP1 cells, 6 hours; highest test concentration 30 μM; read-out: hNLRP3 EC50 (μM) (THP-1defNLRP3)
Method in brief: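 PMA-differentiated (1 μM, 24 h) NLRP3-deficient THP1 macrophages, 1×10^5 cells/well in RPMI 1640 with 2% heat-inactivated FBS, treated with compound for 6 h at 37 °C. Supernatant IL-1β measured by HTRF. EC50 from four-parameter variable-slope fit.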

[2] = biological target: T1, hTLR7 (Homo sapiens, UniProt Q9NYK1); assay: Agonistic effect on hTLR7, HEK-hTLR7-NF-κB-Luciferase reporter cells; format: cell-based; details: 16 hours
T1 construct: host or cells: HEK-hTLR7-NF-κB-Luciferase cells
T1 sequence (Q9NYK1 27-1049): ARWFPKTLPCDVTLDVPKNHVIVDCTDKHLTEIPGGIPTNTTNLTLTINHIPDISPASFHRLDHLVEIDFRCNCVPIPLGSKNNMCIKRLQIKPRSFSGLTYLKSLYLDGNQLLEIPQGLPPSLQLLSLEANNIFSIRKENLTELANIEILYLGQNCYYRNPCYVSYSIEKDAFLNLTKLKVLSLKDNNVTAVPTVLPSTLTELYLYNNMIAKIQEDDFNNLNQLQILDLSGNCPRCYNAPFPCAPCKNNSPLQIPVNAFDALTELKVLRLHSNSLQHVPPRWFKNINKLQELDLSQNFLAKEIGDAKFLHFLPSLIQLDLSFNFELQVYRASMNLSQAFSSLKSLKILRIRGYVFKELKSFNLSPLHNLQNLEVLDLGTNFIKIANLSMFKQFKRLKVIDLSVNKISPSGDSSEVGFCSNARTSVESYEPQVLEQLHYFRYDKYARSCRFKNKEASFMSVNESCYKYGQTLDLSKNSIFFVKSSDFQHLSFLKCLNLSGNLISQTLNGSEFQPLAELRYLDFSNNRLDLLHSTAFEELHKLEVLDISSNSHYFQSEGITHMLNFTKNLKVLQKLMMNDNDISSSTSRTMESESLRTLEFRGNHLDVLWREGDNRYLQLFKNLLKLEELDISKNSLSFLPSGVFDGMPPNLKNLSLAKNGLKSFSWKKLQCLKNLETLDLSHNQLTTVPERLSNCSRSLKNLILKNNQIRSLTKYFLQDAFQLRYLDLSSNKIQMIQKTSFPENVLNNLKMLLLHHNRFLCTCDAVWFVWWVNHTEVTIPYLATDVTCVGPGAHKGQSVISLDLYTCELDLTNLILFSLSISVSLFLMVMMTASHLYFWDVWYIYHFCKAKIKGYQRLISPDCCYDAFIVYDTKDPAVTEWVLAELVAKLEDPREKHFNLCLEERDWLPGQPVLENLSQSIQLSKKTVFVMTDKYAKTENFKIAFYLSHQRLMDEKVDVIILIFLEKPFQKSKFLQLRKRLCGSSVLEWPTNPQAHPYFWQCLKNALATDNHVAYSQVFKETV
Method in brief: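 HEK cells carrying human TLR7 and NF-κB-luciferase reporter, […] in DMEM with 10% FBS, exposed to compound for 16 h at 37 °C, 5% CO2; serves as specificity counterscreen to NLRP3 activity. Luminescence (RLU) after 5 min with luciferase reagent; EC50 by four-parameter variable-slope fit.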

EC50 [1]: > 30 µM
EC50 [2]: > 100 µM
Structure (SMILES): C[C@@H](O)CNc1cc(N)nc2cc(-c3ccn[nH]3)sc12 [Compound 29]
